In test [1] the test system is NLRP3-dependent release of IL-1β. As to the kind of experiment: LPS/ATP-induced IL-1β release from differentiated THP1 cells overexpressing human THIK-1. The following applies: Homo sapiens, THP-1; THIK-1 overexpressing differentiated THP1 cells, LPS/ATP; read-out: IC50, inhibition of IL-1β release. It counts as cell-based. As for the experimental part: THP1 cells, obtained from ATCC, are monocytes isolated from peripheral blood of a leukaemia patient. THP1 cells were grown in RPMI 1640 supplemented with 10% fetal bovine serum (FBS, Hyclone), 1% PenStrep (Invitrogen), and 1% GlutaMax (Invitrogen), and 0.05 mM of 2-mercaptoethanol. To overexpress human THIK-1, THP1 cells were differentiated with 100 ng/ml PMA for 24 h prior to transfection with THIK-1 mRNA synthesized as described in the supplementary material. Cell suspensions (2.5 × 10^6 cells in […]) in the presence of 200 μg/ml mRNA were electroporated with the MaxCyte (STX instrument) in an OC-25 MaxCyte Electroporation cassette using manufacturer settings for THP1 cells. Cell suspensions were transferred to a 6-well plate and allowed to recover for 20 min at 37 °C. Cells were seeded into 384-well plates (10,000 cells/well) for thallium flux assays or 96-well plates (50,000 cells/well) for inflammasome assays the following day. Overexpressing and mock-transfected cells were primed with 100 ng/ml of LPS for 3.5 h prior to addition of compounds 30 min before stimulation with 5 mM ATP. Supernatants were collected 2 h after addition of ATP and stored at −20 °C until the detection of IL-1β.
IL-1β from culture supernatants was measured with DuoSet ELISA kit (R&D Systems) following the manufacturer instructions.

The target of a further test is T1, THIK-1 (Homo sapiens, UniProt Q9HB14).
T1 construct: expressed in transfected cells
T1 sequence (Q9HB14 1-408): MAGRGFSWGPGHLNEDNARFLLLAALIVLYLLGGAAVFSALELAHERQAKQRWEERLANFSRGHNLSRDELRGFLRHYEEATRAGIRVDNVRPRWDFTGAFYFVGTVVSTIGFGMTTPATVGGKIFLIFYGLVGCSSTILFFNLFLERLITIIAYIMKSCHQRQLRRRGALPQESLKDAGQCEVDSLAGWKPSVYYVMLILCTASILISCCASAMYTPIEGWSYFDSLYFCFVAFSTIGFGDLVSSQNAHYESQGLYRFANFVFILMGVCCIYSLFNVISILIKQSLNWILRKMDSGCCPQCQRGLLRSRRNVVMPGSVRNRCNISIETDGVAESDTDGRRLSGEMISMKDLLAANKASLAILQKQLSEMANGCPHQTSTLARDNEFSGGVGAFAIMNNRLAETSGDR
Nature of the test: Thallium flux functional wash-off assay, HEK-hTHIK-1 cells. It counts as cell-based. As for the experimental part: A fluorescence-based thallium influx assay (Molecular Devices potassium assay kit) was used to monitor channel activity. In brief, component A was reconstituted in 17 ml of chloride-free assay buffer (130 mM sodium D-gluconate, 5 mM potassium D-gluconate, 2 mM calcium D-gluconate, 1 mM magnesium D-gluconate, 5 mM NaHCO3, 20 mM HEPES; pH adjusted to 7.4 with NaOH and filtered (0.45 μm filter)) and component C reconstituted in 30 μl of DMSO. Components A and C were combined, and probenecid was added (Life Technologies; final assay concentration (FAC) 4.75 mM for HEK cell lines and 2.47 mM for CHO-Kv2.1) to provide the final dye solution. Media was removed from the cell plates and replaced with dye (20 μl/well) and the plates were incubated at room temperature in the dark for 60 min. On the day of the assay, a diluted compound plate (3x FAC in 1.5% DMSO) was created. Control wells contained either DMSO vehicle (1.5%, 3x FAC) or tetrapentylammonium chloride (TPA; Sigma, 258962; 1.5 mM in 1.5% DMSO, 3x FAC). A 3x thallium stimulation plate was also prepared, to provide a FAC of either 1 mM (human THIK-1) or 3 mM (mouse THIK-1, TREK-1, TWIK-2) thallium sulphate (in assay buffer). For Kv2.1, the FAC of thallium sulphate was 2.6 mM and this was prepared in assay buffer containing potassium sulphate (Sigma P9458; FAC 23.3 mM). Following 60 min of dye loading, 10 μl from the 3x FAC compound plate was added into the cell plate, which was then incubated for 15 min at room temperature in the dark. Using a fluorescent imaging plate reader (FLIPR) tetra plate reader, 15 μl thallium stimulus solution was added to the cell plate and the fluorescence signal recorded every second for 1 min (excitation: 470–495 nm, emission: 515–575 nm).
For the functional wash-off assay, plates were tested in parallel that were run as standard (no wash) with plates that had undergone an additional assay buffer wash and incubation period following compound addition. Briefly, after a 15 min compound incubation, plates were either moved to the FLIPR for immediate thallium addition (standard) or the plates were washed with assay buffer to remove compound solutions (50 μl/well addition and removal), 30 μl/well assay buffer added and the plates incubated for 60 min, followed by thallium addition on the FLIPR (60 min wash).

The structures appear in SMILES notation. Like-named read-outs stand apart in the source and are kept apart here.

Take `Nc1nonc1-c1nc2ccccc2n1Cc1ccncc1` [C101248]: the IC50 came out at 135 nM in test [1]; 96 nM on THIK-1 (compound removed, 60 min incubation in buffer before thallium, read-out: IC50 (60 min wash)); 28 nM on THIK-1 (standard format, 15 min compound incubation, immediate thallium addition, read-out: IC50 (no wash)). The “Hill slope (nH)” value at THIK-1 (60 min wash) amounted to 0.54; on THIK-1 (no wash), 1.3. Besides, the “maximum inhibition (60 min wash)” value on THIK-1 (60 min wash) turned out to be 93%. The “lower potency after 60 min wash-off compared to standard format” value at THIK-1 (60 min wash vs no wash) is listed as 3.4 fold. On THIK-1 (no wash), the “maximum inhibition (no wash)” value turned out to be 101%.

The IC50 is the midpoint of a concentration-inhibition curve.
